What all share (format): biochemical
What all share (conditions): ADP-Glo SIK kinase assay
On the technique in general: ADP-Glo turns the ADP formed in a reaction into a luminescent signal.

The target of one experiment is T1, SIK1 (Homo sapiens, UniProt P57059).
T1 construct: purchased Carna Biosciences 02-131
The experiment in a line: ADP-Glo kinase assay, SIK1. The procedure, abridged:
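Wells with 1% DMSO or 10 μM staurosporine (final) define the control window. The kinase reaction with substrate and ATP runs 120 min at RT, followed by ADP-Glo detection: ATP depletion (40 min) and ADP-derived luminescence (30 min).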

The next experiment concerns the target T2, SIK2 (Homo sapiens, UniProt Q9H0K1).
T2 construct: purchased ThermoFisher Scientific PV4792
The experiment in a line: ADP-Glo kinase assay, SIK2. The method in brief:
(§1)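 Enzyme–substrate mix was started with ATP and incubated 120 min at RT. ADP formed was quantified by ADP-Glo: 40 min ATP depletion, then 30 min detection reagent converting ADP to ATP for luciferase luminescence, which rises with kinase activity. Controls: 1% DMSO and 10 μM staurosporine (final).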

For the next experiment, the target named is T3, SIK3 (Homo sapiens, UniProt Q9Y2K2).
T3 construct: purchased SignalChem S12-11G-100
T3 sequence (Q9Y2K2 whole entry): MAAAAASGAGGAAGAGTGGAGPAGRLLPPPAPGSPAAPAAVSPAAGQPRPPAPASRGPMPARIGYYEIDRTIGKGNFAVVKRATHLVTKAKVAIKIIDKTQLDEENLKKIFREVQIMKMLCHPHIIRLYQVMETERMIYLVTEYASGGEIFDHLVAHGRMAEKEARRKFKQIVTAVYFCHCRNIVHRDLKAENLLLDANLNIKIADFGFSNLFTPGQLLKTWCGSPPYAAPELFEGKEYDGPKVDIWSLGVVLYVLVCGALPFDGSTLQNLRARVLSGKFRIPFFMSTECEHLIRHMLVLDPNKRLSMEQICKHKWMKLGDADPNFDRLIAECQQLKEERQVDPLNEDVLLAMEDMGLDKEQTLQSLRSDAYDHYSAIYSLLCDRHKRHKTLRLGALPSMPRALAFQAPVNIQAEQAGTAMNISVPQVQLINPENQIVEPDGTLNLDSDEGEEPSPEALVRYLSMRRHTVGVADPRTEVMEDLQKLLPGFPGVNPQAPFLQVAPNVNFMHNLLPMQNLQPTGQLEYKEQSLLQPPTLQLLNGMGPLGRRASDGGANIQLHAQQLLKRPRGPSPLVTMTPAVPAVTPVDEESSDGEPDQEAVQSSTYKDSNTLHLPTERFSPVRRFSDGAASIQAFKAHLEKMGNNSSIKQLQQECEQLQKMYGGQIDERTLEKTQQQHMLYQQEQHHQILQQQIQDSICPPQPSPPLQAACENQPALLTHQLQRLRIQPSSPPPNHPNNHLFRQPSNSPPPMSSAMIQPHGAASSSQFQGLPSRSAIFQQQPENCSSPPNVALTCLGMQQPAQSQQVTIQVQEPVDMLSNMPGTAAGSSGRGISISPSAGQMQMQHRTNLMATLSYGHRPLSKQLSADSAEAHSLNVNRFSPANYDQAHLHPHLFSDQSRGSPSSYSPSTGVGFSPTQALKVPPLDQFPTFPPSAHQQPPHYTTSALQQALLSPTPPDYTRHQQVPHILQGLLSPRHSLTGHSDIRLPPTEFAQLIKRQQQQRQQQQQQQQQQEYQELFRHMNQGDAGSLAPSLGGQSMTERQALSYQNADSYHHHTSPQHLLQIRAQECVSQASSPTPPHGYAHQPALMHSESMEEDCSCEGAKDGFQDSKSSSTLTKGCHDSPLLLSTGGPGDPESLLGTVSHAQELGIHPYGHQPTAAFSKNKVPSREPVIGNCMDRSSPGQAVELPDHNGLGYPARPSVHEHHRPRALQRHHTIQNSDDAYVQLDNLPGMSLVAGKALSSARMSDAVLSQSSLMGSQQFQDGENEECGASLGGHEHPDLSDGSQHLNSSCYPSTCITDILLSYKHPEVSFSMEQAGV
The experiment in a line: ADP-Glo kinase assay, SIK3. The method in brief: as §1

Broadly, the IC50 is the concentration needed to halve the response being measured. A lower IC50 goes with greater potency in that assay.

Some results are limits rather than exact numbers.

T2 sequence (Q9H0K1 whole entry): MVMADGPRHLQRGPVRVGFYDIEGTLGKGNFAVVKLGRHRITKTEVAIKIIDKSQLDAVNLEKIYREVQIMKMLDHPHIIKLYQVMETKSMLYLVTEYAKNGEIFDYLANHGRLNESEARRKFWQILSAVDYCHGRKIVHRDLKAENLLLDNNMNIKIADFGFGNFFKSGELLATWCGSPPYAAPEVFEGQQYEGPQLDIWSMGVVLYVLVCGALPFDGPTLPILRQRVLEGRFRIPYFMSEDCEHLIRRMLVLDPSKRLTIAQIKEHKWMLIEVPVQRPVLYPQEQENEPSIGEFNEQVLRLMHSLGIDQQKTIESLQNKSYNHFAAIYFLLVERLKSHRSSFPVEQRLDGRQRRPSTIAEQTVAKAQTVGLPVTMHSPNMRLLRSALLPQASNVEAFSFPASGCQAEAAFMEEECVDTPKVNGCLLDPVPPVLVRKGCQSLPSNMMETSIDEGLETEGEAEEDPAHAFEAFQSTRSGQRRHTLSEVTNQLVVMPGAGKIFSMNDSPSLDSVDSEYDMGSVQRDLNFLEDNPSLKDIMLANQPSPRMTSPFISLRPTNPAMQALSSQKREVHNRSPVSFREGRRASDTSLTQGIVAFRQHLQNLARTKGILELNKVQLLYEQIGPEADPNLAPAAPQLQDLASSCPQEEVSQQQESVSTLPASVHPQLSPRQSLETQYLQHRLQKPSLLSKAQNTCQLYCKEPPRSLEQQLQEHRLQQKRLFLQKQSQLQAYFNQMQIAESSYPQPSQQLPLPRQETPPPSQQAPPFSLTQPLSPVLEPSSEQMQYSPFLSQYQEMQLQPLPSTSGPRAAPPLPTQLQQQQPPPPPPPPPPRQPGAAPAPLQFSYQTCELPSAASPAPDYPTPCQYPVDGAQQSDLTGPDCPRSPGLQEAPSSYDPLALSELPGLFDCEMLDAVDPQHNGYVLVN
T1 sequence (P57059 whole entry): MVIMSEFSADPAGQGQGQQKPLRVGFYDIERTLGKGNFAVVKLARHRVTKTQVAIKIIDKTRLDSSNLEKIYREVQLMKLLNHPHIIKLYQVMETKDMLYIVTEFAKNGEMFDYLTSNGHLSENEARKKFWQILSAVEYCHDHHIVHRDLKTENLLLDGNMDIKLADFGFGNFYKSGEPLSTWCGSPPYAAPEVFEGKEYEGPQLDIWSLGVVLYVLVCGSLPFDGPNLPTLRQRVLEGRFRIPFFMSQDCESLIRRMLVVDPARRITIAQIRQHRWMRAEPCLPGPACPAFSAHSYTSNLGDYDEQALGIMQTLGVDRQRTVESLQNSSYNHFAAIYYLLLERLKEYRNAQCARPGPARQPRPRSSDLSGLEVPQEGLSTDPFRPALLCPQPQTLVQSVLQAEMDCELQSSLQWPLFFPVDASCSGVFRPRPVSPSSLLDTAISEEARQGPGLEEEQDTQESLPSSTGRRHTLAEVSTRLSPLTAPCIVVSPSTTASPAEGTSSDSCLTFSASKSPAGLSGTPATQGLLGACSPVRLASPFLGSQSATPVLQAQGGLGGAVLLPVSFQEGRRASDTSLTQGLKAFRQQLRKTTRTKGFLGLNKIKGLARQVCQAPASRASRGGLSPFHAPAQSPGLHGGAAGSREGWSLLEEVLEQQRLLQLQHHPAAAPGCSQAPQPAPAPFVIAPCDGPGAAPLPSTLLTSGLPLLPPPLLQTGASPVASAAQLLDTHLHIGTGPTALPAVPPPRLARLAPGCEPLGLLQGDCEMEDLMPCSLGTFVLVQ

For `COc1cc(-c2cnc3cc(OCC4CCCN(C=O)C4)ccn23)cc(OC(F)F)c1C(=O)NC1CC1` (stereo not drawn) [compound 142, N-cyclopropyl-2-(difluoromethoxy)-4-[7-[(1-formyl-3-piperidyl)methoxy]imidazo [1,2-a]pyridin-3-yl]-6-methoxy-benzamide], the IC50 at SIK1, against SIK2 and against SIK3 was 0.01 to 10 nM throughout.
As to `COc1cc(-c2cnc3cc(OCC4CCCN4)ccn23)cc(OC(F)F)c1C(=O)NC1CC1` (stereo not drawn) [Cpd 154, N-cyclopropyl-2-(difluoromethoxy)-6-methoxy-4-[7-(pyrrolidin-2-ylmethoxy)imidazo[1,2-a]pyridin-3-yl]benzamide], the values for the IC50 on SIK1, against SIK2 and against SIK3 were 10 to 100 nM, 0.01 to 10 nM and 0.01 to 10 nM, respectively.
For `COc1cc(-c2cnc3cc(OCC4CCOC4)ccn23)cc(OC(F)F)c1C(=O)NC1CC1` (stereo not drawn) [compound 92, N-cyclopropyl-2-(difluoromethoxy)-6-methoxy-4-[7-(tetrahydrofuran-3-ylmethoxy)imidazo[1,2-a]pyridin-3-yl]benzamide], the IC50 on SIK1 lay within 10 to 100 nM; at SIK2 it was 0.01 to 10 nM; on SIK3, 0.01 to 10 nM.
Take `COc1cc(-c2cnc3cc(OCC4(F)CN(C(=O)OC(C)(C)C)C4)ccn23)cc(OC(F)F)c1C(=O)NC1CC1` [Cpd 187, tert-butyl 3-[[3-[4-(cyclopropylcarbamoyl)-3-(difluoromethoxy)-5-methoxy-phenyl]imidazo[1,2-a]pyridin-7-yl]oxymethyl]-3-fluoro-azetidine-1-carboxylate]: the IC50 against SIK1 was 10 to 100 nM; against SIK2 it was 0.01 to 10 nM; against SIK3, 0.01 to 10 nM.
`COc1cc(-c2cnc3cc(OCC4(C)COC4)ccn23)cc(OC(F)F)c1C(=O)NC1CC1` [compound 89, N-cyclopropyl-2-(difluoromethoxy)-6-methoxy-4-[7-[(3-methyloxetan-3-yl)methoxy]imidazo[1,2-a]pyridin-3-yl]benzamide]: the figures for the IC50 at SIK1, on SIK2 and on SIK3 were 10 to 100 nM, 0.01 to 10 nM and 0.01 to 10 nM, respectively.
For `COc1cc(-c2cnc3cc(OCCCOS(C)(=O)=O)ccn23)cc(OC(F)F)c1C(=O)NC1CC1` [Cpd 333, 3-[3-[4-(cyclopropylcarbamoyl)-3-(difluoromethoxy)-5-methoxy-phenyl]imidazo[1,2-a]pyridin-7-yl]oxypropyl methanesulfonate], the figures for the 50% inhibitory concentration (IC50) against SIK1, on SIK2 and at SIK3 were 10 to 100 nM, 0.01 to 10 nM and 0.01 to 10 nM, respectively.
As to `COc1cc(-c2cnc3cc(OCc4cncn4C)ccn23)cc(OC(F)F)c1C(=O)NC1CC1` [compound 19, N-cyclopropyl-2-(difluoromethoxy)-6-methoxy-4-[7-[(3-methylimidazol-4-yl)methoxy]imidazo[1,2-a]pyridin-3-yl]benzamide], the figures for the IC50 against SIK1, against SIK2 and against SIK3 were 10 to 100 nM, 0.01 to 10 nM and 0.01 to 10 nM, respectively.
Take `COc1cc(-c2cnc3cc(OCc4ccccc4)ncn23)cc(OC(F)F)c1C(=O)NC1CC1` [Cpd 159, 4-(7-benzyloxyimidazo[1,2-c]pyrimidin-3-yl)-N-cyclopropyl-2-(difluoromethoxy)-6-methoxy-benzamide]: the IC50 is 100 to 500 nM against SIK1, 10 to 100 nM on SIK2 and 0.01 to 10 nM against SIK3.
Regarding `COc1cc(-c2cnc3cc(OCCCN4[C@H](C)CCC[C@@H]4C)ccn23)cc(OC(F)F)c1C(=O)NC1CC1` [compound 352, N-cyclopropyl-2-(difluoromethoxy)-4-[7-[3-[(2R,6S)-2,6-dimethyl-1-piperidyl]propoxy]imidazo [1,2-a]pyridin-3-yl]-6-methoxy-benzamide], the IC50 at SIK1, on SIK2 and on SIK3 was 0.01 to 10 nM each time.
For the molecule `COc1cc(-c2cnc3cc(OCCN4CCC4)ccn23)cc(OC(F)F)c1C(=O)NC1CC1` [compound 112, 4-[7-[2-(azetidin-1-yl)ethoxy]imidazo[1,2-a]pyridin-3-yl]-N-cyclopropyl-2-(difluoromethoxy)-6-methoxy-benzamide], the IC50 lay in the range of 10 to 100 nM against SIK1, 0.01 to 10 nM on SIK2 and 0.01 to 10 nM on SIK3.
As for `COCCN(CCOc1ccn2c(-c3cc(OC)c(C(=O)NC4CC4)c(OC(F)F)c3)cnc2c1)CC(F)F` [compound 237, N-cyclopropyl-4-[7-[2-[2,2-difluoroethyl(2-methoxyethyl)amino]ethoxy]imidazo[1,2-a]pyridin-3-yl]-2-(difluoromethoxy)-6-methoxy-benzamide], the IC50 against SIK1 was in the range of 10 to 100 nM; against SIK2, 0.01 to 10 nM; against SIK3, 0.01 to 10 nM.
For `CCn1ccnc1COc1ccn2c(-c3cc(OC)c(C(=O)NC4CC4)c(OC(F)F)c3)cnc2c1` [Cpd 173, N-cyclopropyl-2-(difluoromethoxy)-4-[7-[(1-ethylimidazol-2-yl)methoxy]imidazo[1,2-a]pyridin-3-yl]-6-methoxy-benzamide], the IC50 was in the range of 100 to 500 nM on SIK1, 0.01 to 10 nM at SIK2 and 0.01 to 10 nM against SIK3.
Take `COc1cc(-c2cnc3cc(OCCN4CC5CCC(C4)O5)ccn23)cc(OC(F)F)c1C(=O)NC1CC1` [compound 195, N-cyclopropyl-2-(difluoromethoxy)-6-methoxy-4-[7-[2-(8-oxa-3-azabicyclo [3.2.1]octan-3-yl)ethoxy]imidazo[1,2-a]pyridin-3-yl]benzamide]: the IC50 lay within 10 to 100 nM against SIK1, 0.01 to 10 nM against SIK2 and 0.01 to 10 nM against SIK3.
For the molecule `COc1cc(-c2cnc3cc(OCCN(C)c4ccccc4)ccn23)cc(OC(F)F)c1C(=O)NC1CC1` [Cpd 184, N-cyclopropyl-2-(difluoromethoxy)-6-methoxy-4-[7-[2-(N-methylanilino)ethoxy]imidazo[1,2-a]pyridin-3-yl]benzamide], the IC50 on SIK1, at SIK2 and at SIK3 was 0.01 to 10 nM each time.
As to `COc1cc(-c2cnc3cc(OC(C)(C)C#N)ccn23)cc(OC(F)F)c1C(=O)NC1CC1` [Cpd 263, 4-[7-(1-cyano-1-methyl-ethoxy)imidazo[1,2-a]pyridin-3-yl]-N-cyclopropyl-2-(difluoromethoxy)-6-methoxy-benzamide], the IC50 against SIK1 was over 500 nM; at SIK2, over 500 nM; at SIK3 it was 10 to 100 nM.
Regarding `COc1cc(-c2cnc3cc(OCc4nccs4)ccn23)cc(OC(F)F)c1C(=O)NC1CC1` [compound 47, N-cyclopropyl-2-(difluoromethoxy)-6-methoxy-4-[7-(thiazol-2-ylmethoxy)imidazo[1,2-a]pyridin-3-yl]benzamide], the IC50 was in the range of 10 to 100 nM on SIK1, 0.01 to 10 nM against SIK2 and 0.01 to 10 nM at SIK3.
On to `COc1cc(-c2cnc3cc(OCCCN4CCCCC4)ccn23)cc(OC(F)F)c1C(=O)N[C@H]1CC[C@H]1O` (racemic) [compound 353, 2-(difluoromethoxy)-6-methoxy-4-[7-[3-(1-piperidyl)propoxy]imidazo [1,2-a]pyridin-3-yl]-N-[(1S,2R)-2-hydroxycyclobutyl] benzamide/2-(difluoromethoxy)-N-[(1R,2S)-2-hydroxycyclobutyl]-6-methoxy-4-[7-[3-(1-piperidyl)propoxy]imidazo[1,2-a]pyridin-3-yl]benzamide mixture], for which the IC50 was 100 to 500 nM at SIK1, 0.01 to 10 nM at SIK2 and 10 to 100 nM on SIK3.
Taken in the same sequence, the figures for `COc1cc(-c2cnc3cc(OCCCOC(C)=O)ccn23)cc(OC(F)F)c1C(=O)NC1CC1` [Cpd 282, 3-[3-[4-(cyclopropylcarbamoyl)-3-(difluoromethoxy)-5-methoxy-phenyl]imidazo[1,2-a]pyridin-7-yl]oxypropyl acetate] were 10 to 100 nM, 0.01 to 10 nM and 0.01 to 10 nM.
The matching figures for `COc1cc(-c2cnc3cc(OCCCN4CCC(S(C)(=O)=O)CC4)ccn23)cc(OC(F)F)c1C(=O)NC1CC1` [compound 347, N-cyclopropyl-2-(difluoromethoxy)-6-methoxy-4-[7-[3-(4-methylsulfonyl-1-piperidyl)propoxy]imidazo[1,2-a]pyridin-3-yl]benzamide]: 10 to 100 nM, 0.01 to 10 nM and 0.01 to 10 nM.
The matching figures for `COc1cc(-c2cnc3cc(OCC(N)C(C)C)ccn23)cc(OC(F)F)c1C(=O)NC1CC1` (stereo not drawn) [compound 121, 4-[7-(2-amino-3-methyl-butoxy)imidazo[1,2-a]pyridin-3-yl]-N-cyclopropyl-2-(difluoromethoxy)-6-methoxy-benzamide]: 10 to 100 nM, 0.01 to 10 nM and 0.01 to 10 nM.
As for `COc1cc(-c2cnc3cc(OCC4CCC(F)(F)C4)ccn23)cc(OC(F)F)c1C(=O)NC1CC1` (stereo not drawn) [compound 75, N-cyclopropyl-4-[7-[(3,3-difluorocyclopentyl)methoxy]imidazo[1,2-a]pyridin-3-yl]-2-(difluoromethoxy)-6-methoxy-benzamide], the IC50 against SIK1, against SIK2 and on SIK3 was 0.01 to 10 nM in each case.
With `CN(C)CCOc1ccn2c(-c3cc(F)c(C(=O)NC4CC4)c(OC(F)F)c3)cnc2c1` [compound 146, N-cyclopropyl-2-(difluoromethoxy)-4-[7-[2-(dimethylamino)ethoxy]imidazo[1,2-a]pyridin-3-yl]-6-fluoro-benzamide], the IC50 against SIK1 is over 500 nM; against SIK2, 10 to 100 nM; on SIK3 it was 10 to 100 nM.
In the case of `COc1cc(-c2cnc3cc(OC[C@@H]4COCCO4)ccn23)cc(OC(F)F)c1C(=O)NC1CC1` [compound 120, N-cyclopropyl-2-(difluoromethoxy)-4-[7-[[(2S)-1,4-dioxan-2-yl]methoxy]imidazo[1,2-a]pyridin-3-yl]-6-methoxy-benzamide], the IC50 is 10 to 100 nM on SIK1, 0.01 to 10 nM against SIK2 and 0.01 to 10 nM against SIK3.

Source of the values: patent publication US12264156B2, “Compounds and pharmaceutical compositions thereof for the treatment of diseases” (GALAPAGOS NV, priority 2018, dated 2025).
